Measured values from patent US11078202B2, “β-lactamase inhibitor and use thereof” (priority 2018, dated 2021).
Structures can show the parent of a compound that is named as a salt.

How the values were obtained:
Type in all cases: cell-based
[1] = tested on: Klebsiella pneumoniae XNWB 0001; assay: MIC assay of test compounds combined with ceftazidime (8 μg/mL); conditions: ceftazidime 8 μg/mL fixed
Protocol: (§1) The bacterial strains used for the minimum inhibitory concentration (MIC) test were frozen in a −80° C. ULT freezer and thawed 2 days before use. A small amount of frozen bacterial strains were scraped using a sterile inoculating loop, streaked onto a TSA solid culture dish for inoculation, and then cultured for 20-24 h at 35±2° C. in a normal atmospheric environment. 5-10 colonies with similar morphology were picked from the culture dish using a sterile inoculating loop and then re-streaked onto a suitable solid culture dish. Then the dish was placed into a normal incubator for culture for 20-24 h at 35±2° C. 5-10 single bacterial colonies were picked from the solid culture dish, resuspended in 500 μL of 0.9% NaCl, and adjusted to an OD600 of 0.1-0.15 with a spectrophotometer. The bacteria were then diluted 300-fold with 1.1×CAMHB. […] Dilution of test compounds: […] 2 μL of each compound in the dilution master plate of the test compounds was transferred to the corresponding well of the assay plates. In the mean time, 2 μL of 100% DMSO was transferred to the compound-free wells (GC and SC wells). (1) 8 μL of imipenem in the additive plate of imipenem was transferred to the corresponding wells of the assay plates; (2) 8 μL of ceftazidime in the additive plate of ceftazidime was transferred to the corresponding wells of the assay plates; (3) 8 μL of ampicillin in the additive plate of ampicillin was transferred to the corresponding wells of the assay plates. 90 μL of corresponding bacterial inocula were added to wells (except for SC wells) of the assay plates. After addition, the 6 assay plates were covered by sterile covers. The mixtures in the assay plates were centrifuged by a centrifuge at 1000 rpm for 30 s, and mixed uniformly by oscillating with a microplate oscillator at 800 rpm for 1 min, and then cultured in a common incubator for 16-20 h at 35±2° C. The minimum inhibitory concentration of each compound was recorded by reference to guidelines from the Clinical and Laboratory Standards Institute. […] The effect of the test compounds in combination with imipenem, ceftazidime, and ampicillin was also tested. […] The bacterial inocula in the assay plates were resuscitated from TSA and diluted in CAMHB, while growth controls (GC wells) and sterile controls (SC wells) were set up in the assay plates. The minimum inhibitory concentration of each compound combination against different bacteria was observed and recorded after the assay plates were incubated in a common incubator at 35±2° C. for 16-20 h, and the results are shown in Tables 1-3.

[2] = tested on: Klebsiella pneumoniae XNWB 0004; assay: as above; conditions: ceftazidime 8 μg/mL fixed
Protocol: as §1

[3] = tested on: Klebsiella pneumoniae XNWB 0002; assay: as above; conditions: ceftazidime 8 μg/mL fixed
Protocol: as §1

[4] = tested on: Klebsiella pneumoniae XNWB 0006; assay: as above; conditions: ceftazidime 8 μg/mL fixed
Protocol: as §1

[5] = tested on: Klebsiella pneumoniae XNWB 0005; assay: as above; conditions: ceftazidime 8 μg/mL fixed
Protocol: as §1

[6] = tested on: Acinetobacter baumannii XNWB 0007; assay: as above; conditions: ceftazidime 8 μg/mL fixed
Protocol: as §1

[7] = tested on: Klebsiella pneumoniae XNWB 0003; assay: as above; conditions: ceftazidime 8 μg/mL fixed
Protocol: as §1

[8] = tested on: Pseudomonas aeruginosa XNWB 0008; assay: as above; conditions: ceftazidime 8 μg/mL fixed
Protocol: as §1

[9] = tested on: Klebsiella pneumoniae XNWB 0001; assay: MIC assay of test compounds combined with imipenem (4 μg/mL); conditions: imipenem 4 μg/mL fixed
Protocol: as §1

[10] = tested on: Klebsiella pneumoniae XNWB 0004; assay: as above; conditions: imipenem 4 μg/mL fixed
Protocol: as §1

[11] = tested on: Klebsiella pneumoniae XNWB 0002; assay: as above; conditions: imipenem 4 μg/mL fixed
Protocol: as §1

[12] = tested on: Klebsiella pneumoniae XNWB 0006; assay: as above; conditions: imipenem 4 μg/mL fixed
Protocol: as §1

[13] = tested on: Klebsiella pneumoniae XNWB 0005; assay: as above; conditions: imipenem 4 μg/mL fixed
Protocol: as §1

[14] = tested on: Acinetobacter baumannii XNWB 0007; assay: as above; conditions: imipenem 4 μg/mL fixed
Protocol: as §1

[15] = tested on: Klebsiella pneumoniae XNWB 0003; assay: as above; conditions: imipenem 4 μg/mL fixed
Protocol: as §1

[16] = tested on: Pseudomonas aeruginosa XNWB 0008; assay: as above; conditions: imipenem 4 μg/mL fixed
Protocol: as §1

Structure (SMILES)	The minimum concentration of test compounds combined with ceftazidime (8 μg/mL) for bacteriostasis [1]	The minimum concentration of test compounds combined with ceftazidime (8 μg/mL) for bacteriostasis [2]	The minimum concentration of test compounds combined with ceftazidime (8 μg/mL) for bacteriostasis [3]	The minimum concentration of test compounds combined with ceftazidime (8 μg/mL) for bacteriostasis [4]	The minimum concentration of test compounds combined with ceftazidime (8 μg/mL) for bacteriostasis [5]	The minimum concentration of test compounds combined with ceftazidime (8 μg/mL) for bacteriostasis [6]	The minimum concentration of test compounds combined with ceftazidime (8 μg/mL) for bacteriostasis [7]	The minimum concentration of test compounds combined with ceftazidime (8 μg/mL) for bacteriostasis [8]	The minimum concentration of test compounds combined with imipenem (4 μg/mL) for bacteriostasis [9]	The minimum concentration of test compounds combined with imipenem (4 μg/mL) for bacteriostasis [10]	The minimum concentration of test compounds combined with imipenem (4 μg/mL) for bacteriostasis [11]	The minimum concentration of test compounds combined with imipenem (4 μg/mL) for bacteriostasis [12]	The minimum concentration of test compounds combined with imipenem (4 μg/mL) for bacteriostasis [13]	The minimum concentration of test compounds combined with imipenem (4 μg/mL) for bacteriostasis [14]	The minimum concentration of test compounds combined with imipenem (4 μg/mL) for bacteriostasis [15]	The minimum concentration of test compounds combined with imipenem (4 μg/mL) for bacteriostasis [16]
N=C(N)NC[C@H](O)c1cc([C@@H]2CC3(CC3)[C@@H]3CN2C(=O)N3OS(=O)(=O)O)no1 [Example 39, (1R,4S)-4-(5-((S)-2-guanidyl-1-hydroxyethyl)isoxazol-3-yl)-6-oxo-5,7-diazaspiro [bicyclo[3.2.1]octane-2,1′-cyclopropan]-7-yl sulfate]	A (A: <8 μg/mL)	A (A: <8 μg/mL)	A (A: <8 μg/mL)	A (A: <8 μg/mL)	A (A: <8 μg/mL)	C (C: 16-128 μg/mL)	A (A: <8 μg/mL)	B (B: 8-16 μg/mL)	A (A: <8 μg/mL)	A (A: <8 μg/mL)	A (A: <8 μg/mL)	A (A: <8 μg/mL)	A (A: <8 μg/mL)	B (B: 8-16 μg/mL)	A (A: <8 μg/mL)	A (A: <8 μg/mL)
NC[C@H](O)c1nnc([C@@H]2CC3(CC3)[C@@H]3CN2C(=O)N3OS(=O)(=O)O)o1 [Example 62, (1R,4S)-4-(5-((S)-2-amino-1-hydroxyethyl)-1,3,4-oxadiazol-2-yl)-6-oxo-5,7-diazaspiro[bicyclo[3.2.1]octane-2,1′-cyclopropane]-7-yl hydrogen sulfate]	–	–	–	–	–	–	–	–	A (A: <8 μg/mL)	A (A: <8 μg/mL)	A (A: <8 μg/mL)	A (A: <8 μg/mL)	A (A: <8 μg/mL)	A (A: <8 μg/mL)	A (A: <8 μg/mL)	B (B: 8-16 μg/mL)
NC[C@@H](O)c1nnc([C@@H]2CC3(CC3)[C@@H]3CN2C(=O)N3OS(=O)(=O)O)o1 [Example 61]	–	–	–	–	–	–	–	–	A (A: <8 μg/mL)	A (A: <8 μg/mL)	A (A: <8 μg/mL)	A (A: <8 μg/mL)	A (A: <8 μg/mL)	B (B: 8-16 μg/mL)	A (A: <8 μg/mL)	B (B: 8-16 μg/mL)
